Measured values published in patent publication US9439915B2, “Activated nitric oxide donors and methods of making and using thereof” (University of Utah Research Foundation, priority 2008, dated 2016).

Tests used:
[1] = Dialysis retention of JS-K (loading in micelles); format: physicochemical; conditions: 2 hours of dialysis; JS-K levels by HPLC; JS-K to polymer 10% by weight
Description: This example illustrates the extent of JS-K loading in micelles. JS-K was loaded in Pluronic® P123 and L121 polymers to form micelles. The proportion of JS-K to Pluronic® polymer in solution was 10% by weight. The JS-K micelle preparations were then dialyzed for 2 hours. A parallel experiment following the same procedures with free JS-K was set up as a control. After 2 hours of dialysis, JS-K levels were measured by HPLC to estimate the percent of JS-K retained.

HL-60 cells [2] = experiment: In vitro cytotoxicity, MTS assay; format: cell-based
Description: The in vitro cytotoxicity of JS-K in Pluronic® micelles was studied in this example. JS-K was loaded in F68, P105, or F127 Pluronic® micelles as described above. […] […] Similar control experiments were set-up with equivalent concentrations of each Pluronic® micelle without JS-K. After a 3 day incubation, cell growth was measured using the MTS assay. […] Equivalent empty micelles at equal concentrations (0.08% w/v) had no significant effect on cell growth (not shown).

[3] = Effect on systemic blood pressure (tail cuff); format: in vivo, NOD/SCID and NOD/SCID IL2Rγ^null mice; conditions: 5 μmol/kg intravenous, awake mice, up to 2 hours
Description: This example illustrates the effect of JS-K in Pluronic® micelles on systemic blood pressure. […] The proportion of JS-K to Pluronic® polymer in solution was 1.53% by weight.
Awake, unanesthetized NOD/SCID and NOD/SCID IL2Rγ^null mice were used for these experiments.

HL-60 cells [4] = experiment: In vivo anti-leukemic activity, HL-60 flank tumors; parameters: species or system NOD/SCID IL2Rγ^null mice; conditions: 4 μmol/kg intravenously 3 times per week; p=0.01 by F-test
Description: This example illustrates the in vivo anti-leukemic activity of JS-K in Pluronic® micelles. NOD/SCID IL2Rγ^null mice were inoculated with 5×10^6 HL-60 cells in each flank. […] The proportion of JS-K to Pluronic® polymer in solution was 2.0% by weight. Injections were given 3 times per week intravenously. The dose of free and micelle-formulated JS-K was 4 μmol/kg. […] A linear mixed model using SAS PROC MIXED was fit to the data in FIG. 8, using a random effect to account for correlation among measurements within the same animal.

[5] = Stability in RPMI media with 10% Fetal Bovine Serum; format: in vitro ADME; conditions: RPMI/10% FBS, 37° C.; micelle 50, free 10 micromolar; average and SEM of 6
Description: (§1) The stability of JS-K in different media in vitro was evaluated. […] Concentrations of JS-K in the different media were measured at intervals up to 60 minutes using High Pressure Liquid Chromatography (HPLC). Area Under the Curve (AUC) HPLC measurements were used to determine the half-life (T1/2) and percent recovery of JS-K in the different media.

[6] = Stability in pooled human plasma; format: in vitro ADME; conditions: 37° C., micelle 50, free 10 micromolar, average and SEM of 2
Description: as §1

In the case of `CCOC(=O)N1CCN(/[N+]([O-])=N/Oc2ccc([N+](=O)[O-])cc2[N+](=O)[O-])CC1` [free JS-K, O^2-(2,4-dinitrophenyl) 1-[(4-ethoxycarbonyl)piperazin-1-yl]diazen-1-ium-1,2-diolate], the “Percent retention of JS-K after dialysis” value [1] is reported as 31%, the “inhibition of leukemia cell growth” value (HL-60 cells [2]; 0.5 μM, 3 day incubation, MTS, JS-K to polymer 4% by weight) is reported as 62% and the IC50 (HL-60 cells [2]; JS-K to polymer 1.97% by weight) is reported as 0.45 µM. The “sustained drop in systolic blood pressure” value [3] was “around 20 % of baseline”, the “rate of tumor growth, free vs micelle JS-K (linear mixed model)” value (HL-60 cells [4]) was “significantly higher” and the “percent recovery after 60 minute incubation” value [5] was 10.53+/−1.42%. For the same compound, the “percent recovery after 60 minute incubation” value [6] was 39+/−0%.
